According to patent US12630550B2, “Pharmacophore for trail induction” (THE SCRIPPS RESEARCH INSTITUTE, priority 2014, dated 2026):

Tested on: TRAIL mRNA expression
Conditions: RAW 264.7; doses as high as 10 μM or prolonged exposure
Experimental: RAW 264.7 cells (ATCC TIB-71) were maintained in growth medium of Dulbecco's Modified Eagle's Medium (DMEM with 4.5 g/L glucose and pyruvate, Gibco BRL, Invitrogen Corp., USA) supplemented with L-glutamine, penicillin/streptomycin, non-essential amino acids (100× stocks, Invitrogen Corp.), 10 mM HEPES, pH 7.4 (1 M stock, Invitrogen), and 10% Fetal Bovine Serum (FBS, Hyclone); (V. V. Kravchenko, R. J. Ulevitch, G. F. Kaufmann, Methods Mol. Biol. 2011, 692, 133-145).
Cells were plated in 6-well plates (Corning Costar 3506) diluted 1:5 in 3 mL growth medium, media was changed after cells had adhered. After 12 h incubation, cells were treated with described concentration of compound in DMSO, and incubated in the presence of that compound or vehicle for the described amount of time. At this time, media was removed and cells were treated with TRIzol reagent (Life Technologies), and RNA extracted via included protocol. RNA concentration determined using a Hitachi U-2000 UV-Vis Spectrophotometer and samples diluted to 12 μg/5 μL in H2O. […]

## Cc1ccccc1CN1C2=NCCN2C(=O)C2=C1CCN(Cc1ccccc1)C2 [Compound 1, 7-Benzyl-10-(2-methylbenzyl)-2,6,7,8,9,10-hexahydroimidazo[1,2-a]pyrido[4,3-d]pyrimidin-5(3H)-one, reference compound]
  change in TRAIL mRNA expression over controls: No change in TRAIL mRNA expression over controls
